Results on 1 compound are retold here after ChEMBL document CHEMBL2074522, “Role of P-glycoprotein-mediated secretion in absorptive drug permeability: An approach using passive membrane permeability and affinity to P-glycoprotein” (J Pharm Sci, 1999).

For the experiment, the target named is ATP-dependent translocase ABCB1 (Homo sapiens, UniProt P08183). The experiment is described as follows: TP_TRANSPORTER: inhibition of Verapamil binding in membranes from Vinblastine-induced Caco-2 cells. Format: functional, cell membranes, Membrane.

pKi: −log10 of the molar value.

ATP-dependent translocase ABCB1, sequence (P08183 whole entry): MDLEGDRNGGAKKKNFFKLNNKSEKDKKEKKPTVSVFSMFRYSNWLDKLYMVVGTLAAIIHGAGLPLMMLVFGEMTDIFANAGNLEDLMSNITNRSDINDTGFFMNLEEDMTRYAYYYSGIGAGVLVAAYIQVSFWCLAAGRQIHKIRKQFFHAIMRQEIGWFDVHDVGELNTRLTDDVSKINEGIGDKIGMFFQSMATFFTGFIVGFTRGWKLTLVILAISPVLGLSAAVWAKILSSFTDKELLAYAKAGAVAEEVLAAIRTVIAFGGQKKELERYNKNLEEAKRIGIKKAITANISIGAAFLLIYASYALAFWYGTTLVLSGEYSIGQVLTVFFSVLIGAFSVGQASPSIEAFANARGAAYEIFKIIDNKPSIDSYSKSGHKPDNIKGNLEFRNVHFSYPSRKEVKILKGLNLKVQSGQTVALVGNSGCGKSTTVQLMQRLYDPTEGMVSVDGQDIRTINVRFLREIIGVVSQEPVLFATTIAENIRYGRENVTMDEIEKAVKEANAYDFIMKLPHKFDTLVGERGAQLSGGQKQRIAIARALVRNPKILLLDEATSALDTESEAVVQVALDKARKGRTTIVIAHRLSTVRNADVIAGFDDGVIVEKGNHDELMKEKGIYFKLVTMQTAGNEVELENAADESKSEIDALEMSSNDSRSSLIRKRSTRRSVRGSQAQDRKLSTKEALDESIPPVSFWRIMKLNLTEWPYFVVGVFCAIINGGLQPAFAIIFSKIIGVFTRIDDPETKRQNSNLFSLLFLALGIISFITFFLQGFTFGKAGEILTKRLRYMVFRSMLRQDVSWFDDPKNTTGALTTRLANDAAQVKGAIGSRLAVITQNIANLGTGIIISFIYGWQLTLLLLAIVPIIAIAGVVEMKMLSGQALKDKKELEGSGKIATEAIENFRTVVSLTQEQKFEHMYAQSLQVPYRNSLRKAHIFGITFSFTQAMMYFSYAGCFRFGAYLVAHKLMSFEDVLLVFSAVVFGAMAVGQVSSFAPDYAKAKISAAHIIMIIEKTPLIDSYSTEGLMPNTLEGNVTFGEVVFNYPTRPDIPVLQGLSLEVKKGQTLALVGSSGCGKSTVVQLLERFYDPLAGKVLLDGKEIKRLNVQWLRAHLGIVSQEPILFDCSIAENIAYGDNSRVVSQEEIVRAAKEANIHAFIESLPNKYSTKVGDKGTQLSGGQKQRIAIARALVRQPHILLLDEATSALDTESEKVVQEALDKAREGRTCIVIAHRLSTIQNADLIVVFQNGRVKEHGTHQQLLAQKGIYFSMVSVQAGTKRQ

`CC(C)NCC(O)COc1ccc(CCNC(=O)NC(C)C)cc1` (configuration not stated) [PAFENOLOL]: the pKi reads like this: (read-out: Ki1) 5.26; (read-out: Ki2) 2.49.
